Several values for one entry are separate records, joined by “and”; a condition that tells them apart may be missing. Identical values can stand only once.
Tests used:
Assay in all cases: Pull-down with immobilized probes and quantitative mass spectrometry
Assay type in all cases: binding, H. sapiens
[1] = target: T1, OCI-AML5 total protein extracts (cyclin K, CDKs, DDB1) (Homo sapiens, UniProt O75909); details: OCI-AML5 total protein extracts; DEP analysis
T1 construct: endogenous in cells; host or cells: OCI-AML5 total protein extract
T1 sequence (O75909 whole entry): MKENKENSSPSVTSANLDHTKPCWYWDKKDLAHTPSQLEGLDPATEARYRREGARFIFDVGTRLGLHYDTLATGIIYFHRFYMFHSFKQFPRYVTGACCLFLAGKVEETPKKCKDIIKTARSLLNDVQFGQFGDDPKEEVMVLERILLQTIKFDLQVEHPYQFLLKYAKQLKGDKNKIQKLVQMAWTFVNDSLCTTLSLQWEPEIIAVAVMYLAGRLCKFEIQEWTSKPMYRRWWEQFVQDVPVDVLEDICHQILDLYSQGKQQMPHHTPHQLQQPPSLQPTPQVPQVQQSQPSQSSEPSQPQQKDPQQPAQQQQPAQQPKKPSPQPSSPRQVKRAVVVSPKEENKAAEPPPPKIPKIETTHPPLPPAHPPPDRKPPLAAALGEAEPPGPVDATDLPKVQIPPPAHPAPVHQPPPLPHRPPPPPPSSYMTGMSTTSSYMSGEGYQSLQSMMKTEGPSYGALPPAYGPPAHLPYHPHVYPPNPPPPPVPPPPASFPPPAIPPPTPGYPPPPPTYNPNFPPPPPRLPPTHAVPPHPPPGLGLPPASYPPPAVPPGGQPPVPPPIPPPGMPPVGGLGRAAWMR
Procedure: (§1) Probe compounds were immobilized through their terminal amine on NHS-sepharose beads as previously described (Médard et al, [2015]). The prepared beads were then washed in PBS and equilibrated in Triton X-100 buffer. For each replicate, 1–2 mg of total proteins (2 mg/ml) were incubated end-over-end with 25 μl of beads overnight at 4 °C in low protein binding microtubes (Sarstedt). The samples were then washed twice in Triton X-100 buffer, transferred to new microtubes and further washed six times in PBS including another microtube transfer at the last wash. Beads pellets were resuspended in 50 mM ammonium bicarbonate and subjected to reduction, alkylation and tryptic digest as described above. Peptides were separated on an home-made reversed-phase column (150-μm i.d. by 200 mm) with a 56-min gradient from 10 to 30% ACN-0.2% FA and a 600-nl/min flow rate on a Easy nLC-1200 connected to a Exploris 480 (ThermoFisher Scientific, San Jose, CA). Each full MS spectrum acquired at a resolution of 120,000 was followed by tandem-MS (MS-MS) spectra acquisition on the most abundant multiply charged precursor ions for 3 s. Tandem-MS experiments were performed using higher energy collision dissociation (HCD) at a collision energy of 34%. The data were processed using PEAKS X Pro (Bioinformatics Solutions, Waterloo, ON) and a Uniprot human database (20366 entries). Mass tolerances on precursor and fragment ions were 10 ppm and 0.01 Da, respectively. Fixed modification was carbamidomethyl (C). Variable selected posttranslational modifications were acetylation (N-ter), oxidation (M), deamidation (NQ), phosphorylation (STY). The data were visualized with Scaffold 5.0 (protein threshold, 99%, with at least 2 peptides identified and a false-discovery rate [FDR] of 1% for peptides).
(§2) Differential Enrichment analysis of Proteomics data (DEP) package (Zhang et al, [2018]) in R was used to analyze the data (excluding proteins identified based on a single peptide), including data filtering, normalization, imputation of missing values and statistical testing of differentially expressed proteins.

[2] = target: T2, OCI-AML5 total protein extracts (cyclin K, CDKs, DDB1) (Homo sapiens, UniProt P50750); details: OCI-AML5 total protein extracts; DEP analysis
T2 construct: endogenous in cells; host or cells: OCI-AML5 total protein extract
T2 sequence (P50750 whole entry): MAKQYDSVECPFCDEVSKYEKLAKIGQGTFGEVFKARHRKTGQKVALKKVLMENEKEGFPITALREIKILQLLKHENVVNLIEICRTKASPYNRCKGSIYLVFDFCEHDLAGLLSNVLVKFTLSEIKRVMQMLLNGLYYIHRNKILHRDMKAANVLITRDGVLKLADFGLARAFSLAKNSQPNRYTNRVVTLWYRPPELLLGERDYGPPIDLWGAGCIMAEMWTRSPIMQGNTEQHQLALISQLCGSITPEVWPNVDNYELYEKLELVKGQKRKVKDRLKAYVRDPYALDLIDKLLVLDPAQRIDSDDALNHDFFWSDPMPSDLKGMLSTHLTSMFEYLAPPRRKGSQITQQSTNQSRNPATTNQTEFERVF
Procedure: as §1, §2

[3] = target: T3, OCI-AML5 total protein extracts (cyclin K, CDKs, DDB1) (Homo sapiens, UniProt P06493); details: OCI-AML5 total protein extracts; DEP analysis
T3 construct: endogenous in cells; host or cells: OCI-AML5 total protein extract
T3 sequence (P06493 whole entry): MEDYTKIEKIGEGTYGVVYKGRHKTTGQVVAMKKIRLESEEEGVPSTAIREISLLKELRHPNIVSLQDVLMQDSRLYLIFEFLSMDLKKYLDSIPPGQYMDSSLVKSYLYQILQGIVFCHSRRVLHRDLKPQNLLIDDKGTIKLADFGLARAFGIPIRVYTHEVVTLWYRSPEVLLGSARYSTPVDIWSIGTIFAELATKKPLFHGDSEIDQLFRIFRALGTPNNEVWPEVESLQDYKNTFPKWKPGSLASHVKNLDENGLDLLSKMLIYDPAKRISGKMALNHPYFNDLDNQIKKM
Procedure: as §1, §2

[4] = target: T4, OCI-AML5 total protein extracts (cyclin K, CDKs, DDB1) (Homo sapiens, UniProt Q6UXT9); details: protein ABHD15 (Q6UXT9)
T4 construct: endogenous in cells; host or cells: OCI-AML5 total protein extract
T4 sequence (Q6UXT9 24-468): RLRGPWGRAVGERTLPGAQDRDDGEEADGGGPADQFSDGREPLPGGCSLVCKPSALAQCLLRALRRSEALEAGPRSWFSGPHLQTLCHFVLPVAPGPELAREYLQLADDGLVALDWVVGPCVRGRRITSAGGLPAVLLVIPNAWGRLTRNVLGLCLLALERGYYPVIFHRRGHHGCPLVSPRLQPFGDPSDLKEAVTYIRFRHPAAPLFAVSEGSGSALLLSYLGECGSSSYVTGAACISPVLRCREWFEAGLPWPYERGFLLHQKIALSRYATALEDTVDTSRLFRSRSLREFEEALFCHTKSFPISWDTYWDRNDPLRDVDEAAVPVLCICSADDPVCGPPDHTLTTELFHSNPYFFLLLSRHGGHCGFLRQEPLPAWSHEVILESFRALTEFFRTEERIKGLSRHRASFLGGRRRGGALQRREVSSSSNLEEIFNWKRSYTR
Procedure: as §1, §2

[5] = target: T5, OCI-AML5 total protein extracts (cyclin K, CDKs, DDB1) (Homo sapiens, UniProt Q9NYV4); details: OCI-AML5 total protein extracts; DEP analysis
T5 construct: endogenous in cells; host or cells: OCI-AML5 total protein extract
T5 sequence (Q9NYV4 whole entry): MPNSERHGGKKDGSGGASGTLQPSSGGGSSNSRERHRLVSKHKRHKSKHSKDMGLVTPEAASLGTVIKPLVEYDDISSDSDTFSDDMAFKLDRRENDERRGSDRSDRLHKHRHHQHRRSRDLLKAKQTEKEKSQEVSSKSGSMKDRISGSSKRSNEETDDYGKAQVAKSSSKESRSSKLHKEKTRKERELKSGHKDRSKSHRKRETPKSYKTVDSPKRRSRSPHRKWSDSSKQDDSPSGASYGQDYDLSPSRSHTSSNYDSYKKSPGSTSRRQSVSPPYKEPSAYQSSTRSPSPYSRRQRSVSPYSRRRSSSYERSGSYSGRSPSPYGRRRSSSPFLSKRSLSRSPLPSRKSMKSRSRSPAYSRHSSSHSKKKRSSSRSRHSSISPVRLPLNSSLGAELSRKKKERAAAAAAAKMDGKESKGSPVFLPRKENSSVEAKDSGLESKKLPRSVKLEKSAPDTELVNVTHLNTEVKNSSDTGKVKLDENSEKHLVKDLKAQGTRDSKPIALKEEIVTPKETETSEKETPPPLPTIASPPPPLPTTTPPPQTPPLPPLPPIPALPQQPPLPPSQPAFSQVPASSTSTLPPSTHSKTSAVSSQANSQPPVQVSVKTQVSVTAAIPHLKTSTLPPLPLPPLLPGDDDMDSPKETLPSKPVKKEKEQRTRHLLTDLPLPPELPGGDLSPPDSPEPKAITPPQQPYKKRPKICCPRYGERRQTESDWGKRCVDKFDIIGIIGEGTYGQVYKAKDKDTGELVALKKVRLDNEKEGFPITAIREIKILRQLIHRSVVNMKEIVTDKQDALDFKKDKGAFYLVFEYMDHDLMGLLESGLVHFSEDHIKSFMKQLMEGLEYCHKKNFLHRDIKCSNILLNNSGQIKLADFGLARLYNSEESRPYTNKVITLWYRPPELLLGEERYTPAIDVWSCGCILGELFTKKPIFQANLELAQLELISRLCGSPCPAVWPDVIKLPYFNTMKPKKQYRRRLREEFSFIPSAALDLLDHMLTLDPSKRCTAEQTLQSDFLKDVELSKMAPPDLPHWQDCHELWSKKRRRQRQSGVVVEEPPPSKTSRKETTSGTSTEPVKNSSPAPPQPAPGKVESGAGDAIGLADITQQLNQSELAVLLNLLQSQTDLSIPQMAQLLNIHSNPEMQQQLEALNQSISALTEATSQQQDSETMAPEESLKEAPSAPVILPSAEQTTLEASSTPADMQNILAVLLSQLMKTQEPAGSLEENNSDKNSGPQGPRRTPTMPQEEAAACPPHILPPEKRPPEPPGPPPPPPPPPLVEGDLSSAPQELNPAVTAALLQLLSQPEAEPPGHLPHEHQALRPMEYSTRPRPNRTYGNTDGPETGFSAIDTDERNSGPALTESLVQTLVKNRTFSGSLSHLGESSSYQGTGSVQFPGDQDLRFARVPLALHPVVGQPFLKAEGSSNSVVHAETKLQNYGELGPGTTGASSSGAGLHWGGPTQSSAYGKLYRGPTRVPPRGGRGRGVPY
Procedure: as §1, §2

[6] = target: T6, OCI-AML5 total protein extracts (cyclin K, CDKs, DDB1) (Homo sapiens, UniProt P45844); details: protein ABCG1 (P45844)
T6 construct: endogenous in cells; host or cells: OCI-AML5 total protein extract
Procedure: as §1, §2

[7] = target: T7, OCI-AML5 total protein extracts (cyclin K, CDKs, DDB1) (Homo sapiens, UniProt Q96IU4); details: protein ABHD14B (Q96IU4)
T7 construct: endogenous in cells; host or cells: OCI-AML5 total protein extract
T7 sequence (Q96IU4 1-210): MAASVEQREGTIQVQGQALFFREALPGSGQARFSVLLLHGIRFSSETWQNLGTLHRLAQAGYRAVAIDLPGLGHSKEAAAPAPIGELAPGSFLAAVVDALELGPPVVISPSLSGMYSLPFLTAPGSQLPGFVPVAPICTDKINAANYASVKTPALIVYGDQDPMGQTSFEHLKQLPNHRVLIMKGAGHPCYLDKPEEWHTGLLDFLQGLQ
Procedure: as §1, §2

[8] = target: T8, OCI-AML5 total protein extracts (cyclin K, CDKs, DDB1) (Homo sapiens, UniProt Q86UQ4); details: protein ABCA13 (Q86UQ4)
T8 construct: endogenous in cells; host or cells: OCI-AML5 total protein extract
Procedure: as §1, §2

[9] = target: T9, OCI-AML5 total protein extracts (cyclin K, CDKs, DDB1) (Homo sapiens, UniProt P21439); details: protein ABCB4 (P21439)
T9 construct: endogenous in cells; host or cells: OCI-AML5 total protein extract
T9 sequence (P21439 whole entry): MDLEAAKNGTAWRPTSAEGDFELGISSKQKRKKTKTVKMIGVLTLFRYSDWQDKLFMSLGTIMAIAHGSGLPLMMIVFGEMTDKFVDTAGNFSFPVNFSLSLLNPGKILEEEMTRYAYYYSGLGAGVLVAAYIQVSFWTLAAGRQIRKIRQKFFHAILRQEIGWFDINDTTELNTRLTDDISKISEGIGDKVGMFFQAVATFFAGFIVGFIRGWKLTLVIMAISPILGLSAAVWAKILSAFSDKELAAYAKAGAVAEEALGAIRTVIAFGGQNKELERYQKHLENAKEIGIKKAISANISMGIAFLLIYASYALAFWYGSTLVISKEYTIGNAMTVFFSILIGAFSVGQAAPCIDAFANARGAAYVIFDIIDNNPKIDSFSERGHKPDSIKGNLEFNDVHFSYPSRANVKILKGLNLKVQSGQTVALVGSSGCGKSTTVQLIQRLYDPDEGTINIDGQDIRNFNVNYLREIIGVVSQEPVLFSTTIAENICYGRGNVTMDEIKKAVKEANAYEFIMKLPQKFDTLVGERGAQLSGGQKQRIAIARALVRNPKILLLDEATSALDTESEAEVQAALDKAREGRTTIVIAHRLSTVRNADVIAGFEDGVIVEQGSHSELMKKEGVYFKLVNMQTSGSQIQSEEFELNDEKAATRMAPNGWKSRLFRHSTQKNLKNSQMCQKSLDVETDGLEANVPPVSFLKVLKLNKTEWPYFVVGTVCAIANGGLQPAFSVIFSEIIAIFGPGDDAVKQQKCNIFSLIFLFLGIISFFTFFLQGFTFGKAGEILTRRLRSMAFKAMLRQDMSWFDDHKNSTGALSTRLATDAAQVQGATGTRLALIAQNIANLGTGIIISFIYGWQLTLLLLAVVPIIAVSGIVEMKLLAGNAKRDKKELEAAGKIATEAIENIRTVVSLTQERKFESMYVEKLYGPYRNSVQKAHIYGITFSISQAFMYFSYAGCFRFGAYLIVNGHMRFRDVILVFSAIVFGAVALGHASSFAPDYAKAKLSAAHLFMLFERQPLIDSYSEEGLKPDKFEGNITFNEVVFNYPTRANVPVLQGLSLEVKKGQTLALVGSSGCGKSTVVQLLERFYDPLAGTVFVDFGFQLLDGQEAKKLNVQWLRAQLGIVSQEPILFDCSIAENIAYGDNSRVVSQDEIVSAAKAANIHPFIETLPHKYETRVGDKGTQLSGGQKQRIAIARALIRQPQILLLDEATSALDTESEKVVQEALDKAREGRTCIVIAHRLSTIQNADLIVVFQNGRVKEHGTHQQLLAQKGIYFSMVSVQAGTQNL
Procedure: as §1, §2

[10] = target: T10, OCI-AML5 total protein extracts (cyclin K, CDKs, DDB1) (Homo sapiens, UniProt Q16531); details: OCI-AML5 total protein extracts
T10 construct: endogenous in cells; host or cells: OCI-AML5 total protein extract
Procedure: as §1, §2

[11] = centered abundance, competition (compe)
[12] = probe vs probe with competition
[13] = probe with competition (compe) vs UOM-005839
[14] = probe with competition (compe) vs beads

CN(CCOCCOCCN)c1ccc(CC(=O)Nc2ncc(SCc3cccnc3)s2)cc1 [UOM-005790]
pull-down enrichment of Cyclin K [1]: 2.779 and 2.982 and 2.894 | pull-down enrichment of CDK9 [2]: 2.785 and 2.837 and 2.887 | pull-down enrichment of CDK1 [3]: 2.811 and 2.814 and 2.979 | UOM-005790_centered ([4]; centered abundance): 1.53 | UOM-005790compe_centered [4, 11]: 1.26 | UOM-005790_vs_Beads_ratio ([4]; immobilized probe vs beads): 5.2 | UOM-005790_vs_UOM-005839_ratio ([4]; probe vs probe UOM-005839): 0.645 | UOM-005790_vs_UOM-005790compe_ratio [4, 12]: 0.275 | UOM-005790compe_vs_UOM-005839_ratio [4, 13]: 0.37 | UOM-005790compe_vs_Beads_ratio [4, 14]: 4.93 | pull-down enrichment of CDK12 [5]: 0.5953 and 0.6765 and 0.5336 | UOM-005790_centered ([6]; centered abundance): 2.21 | UOM-005790compe_centered [6, 11]: 1.7 | UOM-005790_vs_Beads_ratio ([6]; immobilized probe vs beads): 4.82 | UOM-005790_vs_UOM-005839_ratio ([6]; probe vs probe UOM-005839): 3.51 | UOM-005790_vs_UOM-005790compe_ratio [6, 12]: 0.512 | UOM-005790compe_vs_UOM-005839_ratio [6, 13]: 3 | UOM-005790compe_vs_Beads_ratio [6, 14]: 4.31 | UOM-005790_centered ([7]; centered abundance): 1.19 | UOM-005790compe_centered [7, 11]: 1.42 | UOM-005790_vs_Beads_ratio ([7]; immobilized probe vs beads): 4.31 | UOM-005790_vs_UOM-005839_ratio ([7]; probe vs probe UOM-005839): 0.69 | UOM-005790_vs_UOM-005790compe_ratio [7, 12]: -0.227 | UOM-005790compe_vs_UOM-005839_ratio [7, 13]: 0.916 | UOM-005790compe_vs_Beads_ratio [7, 14]: 4.54 | UOM-005790_centered ([8]; centered abundance): 0.56 | UOM-005790compe_centered [8, 11]: -0.869 | UOM-005790_vs_Beads_ratio ([8]; immobilized probe vs beads): 0.378 | UOM-005790_vs_UOM-005839_ratio ([8]; probe vs probe UOM-005839): 0.434 | UOM-005790_vs_UOM-005790compe_ratio [8, 12]: 1.43 | UOM-005790compe_vs_UOM-005839_ratio [8, 13]: -0.995 | UOM-005790compe_vs_Beads_ratio [8, 14]: -1.05 | UOM-005790_centered ([9]; centered abundance): -2.58 | UOM-005790compe_centered [9, 11]: -1.22 | UOM-005790_vs_Beads_ratio ([9]; immobilized probe vs beads): -5.48 | UOM-005790_vs_UOM-005839_ratio ([9]; probe vs probe UOM-005839): -3.49 | UOM-005790_vs_UOM-005790compe_ratio [9, 12]: -1.36 | UOM-005790compe_vs_UOM-005839_ratio [9, 13]: -2.12 | UOM-005790compe_vs_Beads_ratio [9, 14]: -4.12 | pull-down enrichment of DDB1 [10]: not enriched

— publication PMC12152147, “DDB1 engagement defines the selectivity of S656 analogs for cyclin K degradation over CDK inhibition” (EMBO Reports, 2025)
